# Measurements taken from article PMC6754136 (PLoS ONE, 2019).
# “Also recorded” adds a separate entry of the source.
# Columns and labels:
# [1] = target: purified recombinant human PDE5 (Homo sapiens, UniProt O76074); assay: in vitro PDE5 inhibition assay measuring GMP production from cGMP (HPLC-UV-MS); assay type: biochemical; conditions: 1 nM PDE5 catalytic domain, 0.3 μM cGMP, 25 °C, 15 min; mean of at least three replicates ± SEM; read-out: IC50
# Procedure: STRENDA guidelines were considered in the description of the following enzyme activity assays. PDE5 inhibition and kinetics assays were carried out according to the method of Kincaid and Manganiello [31] and Dell’Agli et al. 1 nM recombinant human PDE5 (catalytic domain consisting of amino acids 537–875, Abcam, ab125581) was pre-incubated with PDE5 inhibitors (synthesized in-house as described above or purchased from Selleck Chemicals) in 40 mM tris-hydrochloric acid, pH 7.8, containing 10 mM MgCl2. […]. PDE5 inhibitors were added to each reaction using a Hewlett-Packard D300 Digital Dispenser (Tecan). Maximum DMSO concentration was 0.1% of the final reaction volume for all samples. After incubation at 25 °C for 5 minutes to allow interaction between PDE5 and drugs, the reaction was started with the addition of 0.3 μM cGMP (Enzo Life Sciences, Inc.) and incubated at 25 °C for 15 minutes. The final reaction volume was 100 μL. Reactions were stopped with the addition of 100 μL of 0.1 M HCl and neutralized by adding 0.1 M NaOH until the pH was 7. […] The amount of GMP produced was measured by HPLC-UV-MS as described in the general procedures. Reaction mixture components were separated with a ramp gradient of solvent A and B run at a flow rate of 0.5 mL/min as follows: 0–4 minutes 0% B, 4–7 minutes 0–95% B, 7–8 minutes 95% B, 8–11.1 minutes 0% B. GMP was measured using selected reaction monitoring in positive mode for a centroid center mass of 152.
# A calibration curve using known concentrations of GMP was generated using the HPLC-UV-MS method described above to quantify the absolute amount of GMP in each reaction (S13 Fig). The linear range was from 5.9 nM to 3 μM. The limit of detection (LOD), defined as the lowest concentration producing a detectable peak above background, was 0.1 nM. The lower limit of quantification (LLOQ), defined as the lowest concentration used to generate a standard curve with r^2 > 0.95, was 5.9 nM. The upper limit of quantification (ULOQ), defined as the highest concentration used to generate a standard curve with r^2 > 0.95, was 3 μM. A GMP calibration curve was generated with each individual run of the HPLC-UV-MS.
# To measure the IC50 as a result of treatment with each icariin analog, the in vitro inhibition enzyme assay as described above was performed, and GMP levels were normalized to no-drug controls and multiplied by 100 to obtain the percent PDE5 activity. IC50 mean ± SEM values were determined by nonlinear-regression fitting of the percent PDE5 activity data using the [inhibitor] vs response–variable slope (four parameters) equation in Prism (version 7.0a and version 8). Top value was constrained to 100, all other parameters were unconstrained. To obtain the dose-response curves for visual confirmation of the best-fit line, we executed a nonlinear regression fitting using the log(inhibitor) vs. response—variable slope (four parameters) equation in Prism. […] AICc analysis (built into Prism) was used to confirm the best-fitting inhibition model. […] Inhibition models were also compared via visual inspection of the fit of the calculated curves on the Michaelis-Menten plots.
# recombinant human PDE5 = recombinant human PDE5 (Homo sapiens, UniProt O76074); assay: in vitro PDE5 kinetics assay (nonlinear regression, AICc model comparison); assay type: biochemical
# Procedure: guidelines were considered in the description of the following enzyme activity assays. […] For kinetics assays, 0.015, 0.05, and 0.2 μM of compounds 3 and 7 were used. […] Maximum DMSO concentration was 0.1% of the final reaction volume for all samples. […] The final reaction volume was 100 μL. Reactions were stopped with the addition of 100 μL of 0.1 M HCl and neutralized by adding 0.1 M NaOH until the pH was 7. […] Reaction mixture components were separated with a ramp gradient of solvent A and B run at a flow rate of 0.5 mL/min as follows: 0-4 minutes 0% B, 4-7 minutes 0-95% B, 7-8 minutes 95% B, 8-11.1 minutes 0% B. GMP was measured using selected reaction monitoring in positive mode for a centroid center mass of 152. […] Top value was constrained to 100, all other parameters were unconstrained. To obtain the dose-response curves for visual confirmation of the best-fit line, we executed a nonlinear regression fitting using the log(inhibitor) vs. response-variable slope (four parameters) equation in Prism. […] AICc analysis (built into Prism) was used to confirm the best-fitting inhibition model. […] Inhibition models were also compared via visual inspection of the fit of the calculated curves on the Michaelis-Menten plots.
# [2] = target: T1, partially purified recombinant human PDE6C (Homo sapiens, UniProt P51160); assay: PDE6C inhibition assay (GMP production); assay type: biochemical
# T1 construct: partially purified recombinant full-length human PDE6C; purchased SB Drug Discovery; host or cells: insect cells
# Procedure: PDE6C inhibition was measured using the same method as described for PDE5 with modifications. […] The final reaction volume was 50 μL. […] Reactions were stopped as described above for PDE5 enzyme assays, and GMP was quantified as described above. […] The amount of GMP produced in these samples was subtracted from all samples before normalizing against untreated controls.
# [3] = mitochondrial viability assay with resazurin; assay type: cell-based, human; conditions: human, four cell lines, 0.01–10 μM, even at the highest concentration tested (10 μM)
# Procedure: The human cell lines SH-SY5Y (SY5Y, ATCC CRL-2266), SK-MEL-5 (SKMEL-5, ATCC HTB-70), and NCI-H187 (H187, ATCC CRL-5804) were cultured in RPMI medium supplemented with 10% FBS and no antibiotics. These three cell lines were generously provided by the laboratory of Susan Lindquist via Luke Whitesell (currently at the University of Toronto, Toronto, ON, Canada). BJ-hTERT (described in [27], generously provided by Robert Weinberg, Whitehead Institute, Cambridge MA, USA) was cultured in 4:1 DMEM:M199 medium supplemented with 15% FBS and no antibiotics. All cell lines were grown and assayed at 37 °C, 5% CO2. All cell lines were screened for mycoplasma contamination by PCR (Mycoscope Detection Kit, Fisher Scientific) before use in assays.
# For viability assays, cells were plated in black, clear bottom 384-well tissue culture-treated plates (Corning) and incubated overnight in the media described above but supplemented with 50 U/mL penicillin-streptomycin antibiotic (Life Technologies). Then, DMSO (no drug controls) and PDE5 inhibitors (0.01–10 μM; synthesized as described above or purchased from Selleck Chemicals) were added using a Hewlett-Packard D300 Digital Dispenser (Tecan) and incubated for 3 days. Maximum DMSO concentration was normalized to 0.1% of the total well volume for all wells. Resazurin (R & D Systems) was diluted 1:20 into each well and incubated for up to 4 hours. Fluorescence was read in a Tecan plate reader (excitation = 570 nm, emission = 585 nm). Wells treated with PDE5 inhibitors were normalized against control wells treated with DMSO to measure percent mitochondrial viability (100 = no effect on mitochondrial viability).
# T1 sequence (P51160 whole entry): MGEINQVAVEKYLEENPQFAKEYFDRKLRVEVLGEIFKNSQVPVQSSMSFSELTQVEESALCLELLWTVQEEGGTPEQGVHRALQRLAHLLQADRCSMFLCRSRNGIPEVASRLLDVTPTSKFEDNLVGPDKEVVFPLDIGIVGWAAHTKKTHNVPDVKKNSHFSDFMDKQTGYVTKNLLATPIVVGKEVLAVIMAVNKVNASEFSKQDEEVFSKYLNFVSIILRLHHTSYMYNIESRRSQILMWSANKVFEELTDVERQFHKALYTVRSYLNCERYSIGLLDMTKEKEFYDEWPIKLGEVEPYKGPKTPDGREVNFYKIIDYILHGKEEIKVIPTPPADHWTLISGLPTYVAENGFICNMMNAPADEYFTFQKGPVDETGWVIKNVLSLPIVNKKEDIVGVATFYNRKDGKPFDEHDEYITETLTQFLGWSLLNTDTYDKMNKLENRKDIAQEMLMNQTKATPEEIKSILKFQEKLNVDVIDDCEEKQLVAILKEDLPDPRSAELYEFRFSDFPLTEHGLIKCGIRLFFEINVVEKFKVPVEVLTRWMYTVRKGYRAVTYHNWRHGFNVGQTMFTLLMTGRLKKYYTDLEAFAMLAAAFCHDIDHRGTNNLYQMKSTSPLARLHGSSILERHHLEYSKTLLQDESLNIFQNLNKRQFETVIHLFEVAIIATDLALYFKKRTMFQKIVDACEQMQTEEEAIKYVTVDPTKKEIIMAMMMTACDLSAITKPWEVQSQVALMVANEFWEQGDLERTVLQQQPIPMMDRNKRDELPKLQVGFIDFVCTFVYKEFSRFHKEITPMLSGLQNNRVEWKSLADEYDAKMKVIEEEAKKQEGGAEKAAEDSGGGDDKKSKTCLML
smiles,measurement,setting,value
"COc1ccc(-c2oc3c(CC=C(C)C)c(O)cc(O)c3c(=O)c2OCCCO)cc1 [Compound 7, 3-O-(3-Hydroxypropyl)-Icaritin]",IC50,[1],140 ± 60 nM
same,Ki,recombinant human PDE5,36 ± 7 nM
same,Preferred model,recombinant human PDE5; AICc comparison of competitive vs noncompetitive inhibition,Competitive inhibition
same,Preferred model,recombinant human PDE5; AICc comparison of competitive vs uncompetitive inhibition,Competitive inhibition
same,probability that the competitive inhibition model is correct,"recombinant human PDE5; AICc, compared to a noncompetitive or uncompetitive model",> 99%
same,Probability it is correct (competitive inhibition),"recombinant human PDE5; AICc, competitive vs noncompetitive inhibition",>99.99%
same,Probability it is correct (competitive inhibition),"recombinant human PDE5; AICc, competitive vs uncompetitive inhibition",>99.99%
same,mode of inhibition,recombinant human PDE5; Lineweaver-Burk plot and AICc analysis,competitive inhibition as the best fitting model; also recorded: partially competitive model
same,specificity for PDE5 over PDE6C,[2],does not show this specificity
same,"PDE6C inhibition, statistical significance","[2]; at 50x the PDE5 IC50, vs theoretical uninhibited mean of 100%",significantly inhibits PDE6C activity
same,"viability at 3 days, 10 μM",[3],> 70%
